Key:
[1] = molecular target: Beta-3 adrenergic receptor (Homo sapiens, UniProt P13945); assay: DRUGMATRIX: Adrenergic beta3 radioligand binding (ligand: [125I] Cyanopindolol); format: cell membranes, HEK293, Membrane; details: hek293; Not Active = under 50% inhibition at 10 µM
[2] = molecular target: T1, Nitric oxide synthase, inducible (Mus musculus, UniProt P29477); design: species or system Escherichia coli;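 also: inhibition of iNOS enzyme activity measured with L-arginine as substrate; in other assays of this panel Not Active means under 50% inhibition at 10 µM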
T1 sequence (P29477 whole entry): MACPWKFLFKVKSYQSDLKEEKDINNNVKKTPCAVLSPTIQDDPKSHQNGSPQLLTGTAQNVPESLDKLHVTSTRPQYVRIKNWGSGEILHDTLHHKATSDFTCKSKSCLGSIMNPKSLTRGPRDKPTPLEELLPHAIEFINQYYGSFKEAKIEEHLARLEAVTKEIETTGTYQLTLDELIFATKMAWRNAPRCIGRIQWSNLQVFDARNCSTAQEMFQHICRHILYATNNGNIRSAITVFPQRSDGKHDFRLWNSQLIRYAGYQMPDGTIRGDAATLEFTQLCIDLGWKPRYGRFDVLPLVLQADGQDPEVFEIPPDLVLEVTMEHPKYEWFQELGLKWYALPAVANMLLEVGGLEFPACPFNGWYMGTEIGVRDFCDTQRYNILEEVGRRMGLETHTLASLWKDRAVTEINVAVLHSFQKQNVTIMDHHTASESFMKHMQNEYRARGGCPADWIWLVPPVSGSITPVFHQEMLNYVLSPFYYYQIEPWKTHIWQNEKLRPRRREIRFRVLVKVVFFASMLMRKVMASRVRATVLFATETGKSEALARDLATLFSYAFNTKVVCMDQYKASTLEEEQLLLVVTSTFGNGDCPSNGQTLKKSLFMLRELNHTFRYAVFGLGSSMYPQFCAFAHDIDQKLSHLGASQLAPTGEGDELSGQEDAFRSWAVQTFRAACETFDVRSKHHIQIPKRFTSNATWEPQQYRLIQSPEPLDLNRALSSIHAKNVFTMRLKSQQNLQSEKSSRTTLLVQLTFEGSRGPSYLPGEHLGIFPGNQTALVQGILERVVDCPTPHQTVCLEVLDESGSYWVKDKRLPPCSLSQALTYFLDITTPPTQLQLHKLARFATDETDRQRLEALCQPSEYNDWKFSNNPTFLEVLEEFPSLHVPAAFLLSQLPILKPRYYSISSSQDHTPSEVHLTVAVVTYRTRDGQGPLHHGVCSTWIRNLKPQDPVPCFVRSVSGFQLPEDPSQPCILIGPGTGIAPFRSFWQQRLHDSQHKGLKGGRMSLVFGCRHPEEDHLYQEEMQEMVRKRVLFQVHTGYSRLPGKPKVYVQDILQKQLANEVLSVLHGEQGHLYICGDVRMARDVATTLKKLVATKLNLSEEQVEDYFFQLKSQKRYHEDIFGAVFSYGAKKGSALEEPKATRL

[3] = molecular target: T2, Alpha-1D adrenergic receptor (Homo sapiens, UniProt P25100); format: cell membranes, HEK293, Membrane; details: hek293; also: in other assays of this panel Not Active means under 50% inhibition at 10 µM
T2 sequence (P25100 whole entry): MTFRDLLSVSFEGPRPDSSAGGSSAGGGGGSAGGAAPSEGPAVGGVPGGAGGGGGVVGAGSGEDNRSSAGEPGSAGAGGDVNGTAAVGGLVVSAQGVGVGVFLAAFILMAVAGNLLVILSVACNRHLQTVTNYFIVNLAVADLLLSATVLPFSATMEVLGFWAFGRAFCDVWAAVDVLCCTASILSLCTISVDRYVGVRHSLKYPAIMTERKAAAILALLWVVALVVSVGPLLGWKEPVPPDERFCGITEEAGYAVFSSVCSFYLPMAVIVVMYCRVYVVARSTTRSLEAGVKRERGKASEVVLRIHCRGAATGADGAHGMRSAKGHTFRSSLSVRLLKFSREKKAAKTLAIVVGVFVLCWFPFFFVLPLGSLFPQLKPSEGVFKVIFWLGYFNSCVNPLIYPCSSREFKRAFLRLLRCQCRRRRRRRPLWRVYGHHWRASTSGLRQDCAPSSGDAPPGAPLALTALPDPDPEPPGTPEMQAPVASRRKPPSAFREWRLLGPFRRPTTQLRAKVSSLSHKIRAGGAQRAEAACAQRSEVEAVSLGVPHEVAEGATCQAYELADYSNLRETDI

[4] = molecular target: 5-hydroxytryptamine receptor 6 (Homo sapiens, UniProt P50406); format: cell membranes, HeLa, Membrane; also: in other assays of this panel Not Active means under 50% inhibition at 10 µM
[5] = molecular target: T3, 5-hydroxytryptamine receptor 1A (Rattus norvegicus, UniProt P19327); format: cell membranes, CHO-K1, Membrane; also: in other assays of this panel Not Active means under 50% inhibition at 10 µM
T3 sequence (P19327 whole entry): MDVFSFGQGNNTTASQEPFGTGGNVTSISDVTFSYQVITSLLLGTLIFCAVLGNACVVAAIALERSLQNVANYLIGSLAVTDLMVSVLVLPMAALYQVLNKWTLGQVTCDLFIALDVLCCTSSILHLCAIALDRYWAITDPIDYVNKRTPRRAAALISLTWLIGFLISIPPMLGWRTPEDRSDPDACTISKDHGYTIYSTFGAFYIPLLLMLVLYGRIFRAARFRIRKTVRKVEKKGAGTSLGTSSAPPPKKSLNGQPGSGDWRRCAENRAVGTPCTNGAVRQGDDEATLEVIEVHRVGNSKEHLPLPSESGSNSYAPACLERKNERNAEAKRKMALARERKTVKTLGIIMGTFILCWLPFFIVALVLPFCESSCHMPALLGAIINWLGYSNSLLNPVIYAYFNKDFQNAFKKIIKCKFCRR

[6] = DRUGMATRIX: Tumor Necrosis Factor (TNF), Non-Selective radioligand binding (ligand: [125I] TNF-alpha); format: cell membranes, Membrane; details: u-937; Not Active = under 50% inhibition at 10 µM

Chain of Beta-3 adrenergic receptor (P13945 whole entry): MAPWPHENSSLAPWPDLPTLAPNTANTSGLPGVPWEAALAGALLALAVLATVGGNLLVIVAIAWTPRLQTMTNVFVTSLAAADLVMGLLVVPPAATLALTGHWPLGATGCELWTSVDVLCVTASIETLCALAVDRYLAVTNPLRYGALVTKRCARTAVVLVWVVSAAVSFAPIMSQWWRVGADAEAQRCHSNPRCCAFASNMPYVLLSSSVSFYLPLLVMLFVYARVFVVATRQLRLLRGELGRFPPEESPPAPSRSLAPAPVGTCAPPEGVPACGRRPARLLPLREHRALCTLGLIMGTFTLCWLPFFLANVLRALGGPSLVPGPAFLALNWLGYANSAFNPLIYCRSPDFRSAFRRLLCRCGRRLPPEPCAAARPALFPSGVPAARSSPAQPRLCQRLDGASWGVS
Chain of 5-hydroxytryptamine receptor 6 (P50406 whole entry): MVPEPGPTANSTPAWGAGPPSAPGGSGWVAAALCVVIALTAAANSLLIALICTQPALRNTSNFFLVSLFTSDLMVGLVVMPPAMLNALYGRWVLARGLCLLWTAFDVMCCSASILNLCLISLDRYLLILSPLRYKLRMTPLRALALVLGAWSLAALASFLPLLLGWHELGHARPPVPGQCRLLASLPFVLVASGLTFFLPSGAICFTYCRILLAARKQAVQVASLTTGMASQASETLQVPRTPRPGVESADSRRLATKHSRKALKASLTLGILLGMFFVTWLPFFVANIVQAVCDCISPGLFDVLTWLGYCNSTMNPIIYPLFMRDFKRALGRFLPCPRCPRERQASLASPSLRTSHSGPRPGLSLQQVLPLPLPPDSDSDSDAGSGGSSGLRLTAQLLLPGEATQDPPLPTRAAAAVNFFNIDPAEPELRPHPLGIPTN

| Structure (SMILES) | IC50 [1] | IC50 [2] | IC50 [3] | IC50 ([4]; hela) | IC50 ([5]; cho-k1) | IC50 [6] | Ki [6] | Ki [1] | Ki [2] | Ki [3] | Ki ([4]; hela) | Ki ([5]; cho-k1) | IC50 ([5]; read-out: IC50) | Ki ([5]; read-out: Ki) | IC50 ([4]; read-out: IC50) | Ki ([4]; read-out: Ki) |
| --- | --- | --- | --- | --- | --- | --- | --- | --- | --- | --- | --- | --- | --- | --- | --- | --- |
| CC(C)CN(C[C@@H](O)[C@H](Cc1ccccc1)NC(=O)O[C@H]1CCOC1)S(=O)(=O)c1ccc(N)cc1 | Not Active | Not Active | Not Active | Not Active | Not Active | Not Active | Not Active | – | – | – | – | – | – | – | – | – |
| c1ccc(Nc2ccc(Nc3ccccc3)cc2)cc1 | Not Active | Not Active | Not Active | Not Active | Not Active | Not Active | Not Active | – | – | – | – | – | – | – | – | – |
| COc1cc2c3cc1Oc1cc(ccc1O)C[C@@H]1c4c(cc(OC)c(O)c4Oc4ccc(cc4)C[C@@H]3N(C)CC2)CC[N+]1(C)C.[Cl-] | Not Active | Not Active | Not Active | Not Active | Not Active | Not Active | Not Active | – | – | – | – | – | – | – | – | – |
| NC(=O)N1c2ccccc2CCc2ccccc21 | Not Active | Not Active | Not Active | Not Active | Not Active | Not Active | Not Active | – | – | – | – | – | – | – | – | – |
| O=C1CC[C@@H](N2C(=O)c3ccccc3C2=O)C(=O)N1 | Not Active | Not Active | Not Active | Not Active | Not Active | Not Active | Not Active | – | – | – | – | – | – | – | – | – |
| Cc1onc(O)c1CC(N)C(=O)O (racemic) [(R,S)-AMPA] | Not Active | Not Active | Not Active | Not Active | Not Active | Not Active | Not Active | – | – | – | – | – | – | – | – | – |
| Cc1ccc2cc3c(ccc4ccccc43)c3c2c1CC3 [3-METHYLCHOLANTHRENE] | Not Active | Not Active | Not Active | Not Active | Not Active | Not Active | Not Active | – | – | – | – | – | – | – | – | – |
| CC[C@@]1(O)C[C@H](O[C@H]2C[C@H](N(C)C)[C@H](O[C@H]3C[C@H](O)[C@H](O[C@H]4CCC(=O)[C@H](C)O4)[C@H](C)O3)[C@H](C)O2)c2c(cc3c(c2O)C(=O)c2c(O)cccc2C3=O)[C@H]1C(=O)OC [ACLARUBICIN] | Not Active | Not Active | Not Active | Not Active | Not Active | Not Active | Not Active | – | – | – | – | – | – | – | – | – |
| Nc1nc2c(ncn2COCCO)c(=O)[nH]1 [ACYCLOVIR] | Not Active | Not Active | Not Active | Not Active | Not Active | Not Active | Not Active | – | – | – | – | – | – | – | – | – |
| Cc1c(C)c2c(c(C)c1O)CC[C@@](C)(CCC[C@H](C)CCC[C@H](C)CCCC(C)C)O2 [ALPHA-TOCOPHEROL] | Not Active | Not Active | Not Active | Not Active | Not Active | Not Active | Not Active | – | – | – | – | – | – | – | – | – |
| CN(C)c1nc(N(C)C)nc(N(C)C)n1 [ALTRETAMINE] | Not Active | Not Active | Not Active | Not Active | Not Active | Not Active | Not Active | – | – | – | – | – | – | – | – | – |
| Nc1c(Br)cc(Br)cc1CN[C@H]1CC[C@H](O)CC1 [AMBROXOL] | Not Active | Not Active | Not Active | Not Active | Not Active | Not Active | Not Active | – | – | – | – | – | – | – | – | – |
| NCCCCCC(=O)O [AMINOCAPROIC ACID] | Not Active | Not Active | Not Active | Not Active | Not Active | Not Active | Not Active | – | – | – | – | – | – | – | – | – |
| CCC1(c2ccc(N)cc2)CCC(=O)NC1=O (stereo not given) [AMINOGLUTETHIMIDE] | Not Active | Not Active | Not Active | Not Active | Not Active | Not Active | Not Active | – | – | – | – | – | – | – | – | – |
| Cc1ccc(/N=C/N(C)/C=N/c2ccc(C)cc2C)c(C)c1 [AMITRAZ] | Not Active | Not Active | Not Active | Not Active | Not Active | Not Active | Not Active | – | – | – | – | – | – | – | – | – |
| CCOC(=O)C1=C(COCCN)NC(C)=C(C(=O)OC)C1c1ccccc1Cl (stereo not given) [AMLODIPINE] | Not Active | Not Active | Not Active | – | Not Active | Not Active | Not Active | – | – | – | – | – | – | – | – | – |
| COc1ccc(C[C@H]2NC[C@H](O)[C@H]2OC(C)=O)cc1 [ANISOMYCIN] | Not Active | Not Active | Not Active | Not Active | Not Active | Not Active | Not Active | Not Active | Not Active | Not Active | Not Active | Not Active | – | – | – | – |
| Nc1ncn([C@@H]2O[C@H](CO)[C@@H](O)[C@H]2O)c(=O)n1 [AZACITIDINE] | Not Active | Not Active | Not Active | Not Active | Not Active | Not Active | Not Active | – | – | – | – | – | – | – | – | – |
| CN(C)C(=O)Oc1cc(OC(=O)N(C)C)cc(C(O)CNC(C)(C)C)c1 (stereo not given) [BAMBUTEROL] | Not Active | Not Active | Not Active | Not Active | Not Active | Not Active | Not Active | – | – | – | – | – | – | – | – | – |
| c1ccc2c(c1)c1cccc3ccc4cccc2c4c31 [BENZO[E]PYRENE] | Not Active | Not Active | Not Active | Not Active | Not Active | Not Active | Not Active | – | – | – | – | – | – | – | – | – |
| CNCCc1ccccn1 [BETAHISTINE] | Not Active | Not Active | Not Active | Not Active | Not Active | Not Active | Not Active | – | – | – | – | – | – | – | – | – |
| CN(C)CCCN1c2ccccc2Sc2ccc(Cl)cc21 [CHLORPROMAZINE] | Not Active | Not Active | – | – | – | Not Active | Not Active | – | – | – | – | – | 4680 nM | 2680 nM | – | – |
| COc1cc2nc(N3CCN(C(=O)C4COc5ccccc5O4)CC3)nc(N)c2cc1OC (stereo not given) [DOXAZOSIN] | Not Active | Not Active | – | Not Active | Not Active | Not Active | Not Active | – | – | – | – | – | – | – | – | – |
| CCCN1C[C@H](CSC)C[C@@H]2c3cccc4[nH]cc(c34)C[C@H]21 [PERGOLIDE] | Not Active | Not Active | – | – | – | Not Active | Not Active | – | – | – | – | – | – | – | 39 nM | 18 nM |
| Cc1ccc(N(CC2=NCCN2)c2cccc(O)c2)cc1 [PHENTOLAMINE] | Not Active | Not Active | – | Not Active | Not Active | Not Active | Not Active | – | – | – | – | – | – | – | – | – |
